{
  "source": "ChEMBL document CHEMBL5143608",
  "about": "“Peptide-based long-acting co-agonists of GLP-1 and cholecystokinin 1 receptors as novel anti-diabesity agents” (Eur J Med Chem, 2022)",
  "key": {"[1]": {"test": "Renal toxicity in DIO C57BL/6 mouse assessed as blood urea nitrogen level at 100 nmol/kg, sc administered once daily for 7 days", "assay_type": "organism-based", "settings": "in vivo, 168 h, time 7 day"}, "[2]": {"test": "Pancreatic insult activity in DIO C57BL/6 mouse assessed as increase in amylase level in plasma at 100 nmol/kg, sc administered once daily for 7 days", "assay_type": "toxicity, organism-based", "settings": "in vivo, 168 h, time 7 day"}, "Mus musculus [3]": {"tested_on": "Mus musculus", "test": "Anti-diabesity activity in db/db mouse assessed as improvement in glucose tolerance at 25 nmol/kg, ip pretreated for 15 mins with CCK-1R antagonist, Lorglumide followed by compound administration and 15 mins later treated with oral glucose and measured upto 120 mins by OGTT", "assay_type": "functional, organism-based", "settings": "time 135.0 min"}, "[4]": {"test": "Hepatotoxicity in DIO C57BL/6 mouse assessed as aspartate aminotransferase level in plasma at 100 nmol/kg, sc administered once daily for 7 days", "assay_type": "toxicity, organism-based", "settings": "in vivo, 168 h, time 7 day"}, "Mus musculus [5]": {"tested_on": "Mus musculus", "test": "Anti-diabesity activity against DIO C57BL/6 mouse assessed as increase in adiponectin level in plasma at 25 nmol/kg, sc administered every 2 days for 3 weeks by ELISA", "assay_type": "functional, organism-based", "settings": "time 21.0 day"}, "[6]": {"test": "Hepatotoxicity in DIO C57BL/6 mouse assessed as aspartate aminotransferase level in serum at 25 nmol/kg, sc administered every 2 days for 3 weeks", "assay_type": "toxicity, organism-based", "settings": "in vivo, 504 h, time 21 day"}, "Mus musculus [7]": {"tested_on": "Mus musculus", "test": "Anti-diabesity activity against DIO C57BL/6 mouse assessed as improvement in glucose tolerance at 25 nmol/kg, sc administered every 2 days for 3 weeks by OGTT", "assay_type": "functional, organism-based", "settings": "time 21.0 day"}, "Mus musculus [8]": {"tested_on": "Mus musculus", "test": "Anti-diabesity activity against db/db mouse assessed as reduction in HbA1c level at 25 nmol/kg, sc administered every 2 days and measured on day 43", "assay_type": "functional, organism-based", "settings": "time 43.0 day"}, "[9]": {"test": "Pancreatic insult activity in db/db mouse assessed as increase in amylase level in plasma at 100 nmol/kg, sc administered once daily for 7 days", "assay_type": "toxicity, organism-based", "settings": "in vivo, 168 h, time 7 day"}, "[10]": {"test": "Cmax in Sprague-Dawley rat at 25 nmol/kg, sc by LC-MS/MS analysis", "assay_type": "ADME, organism-based", "set-up": "dose 25 nmol/kg, route sc", "settings": "in vivo"}, "Mus musculus [11]": {"tested_on": "Mus musculus", "test": "Anti-diabesity activity against db/db mouse assessed as increase in IOD of insulin in pancreas at 25 nmol/kg, sc administered every 2 days for 12 weeks by immunohistochemistry", "assay_type": "functional, organism-based"}, "Mus musculus [12]": {"tested_on": "Mus musculus", "test": "Anorectic activity in ICR mouse assessed as decrease in food intake at 25 nmol/kg, ip and measured after 9 hrs", "assay_type": "functional, organism-based"}, "Mus musculus [13]": {"tested_on": "Mus musculus", "test": "Hypoglycemic activity in sc dosed non-fasted db/db mouse assessed as reduction in blood glucose level measured upto 48 hrs", "assay_type": "functional, organism-based", "settings": "dose 10-100 nmol/kg, DDE = dose-dependent effect"}, "Mus musculus [14]": {"tested_on": "Mus musculus", "test": "Anti-diabesity activity against db/db mouse assessed as reduction in HbA1c level at 25 nmol/kg, sc administered every 2 days for 6 weeks followed by saline treatment for 6 weeks and measured during first 6 weeks", "assay_type": "functional, organism-based"}, "Mus musculus [15]": {"tested_on": "Mus musculus", "test": "Anti-diabesity activity against db/db mouse assessed as increase in islet area at 25 nmol/kg, sc administered every 2 days for 3 weeks by H and E staining based analysis", "assay_type": "functional, organism-based", "settings": "time 21.0 day"}, "[16]": {"test": "Pancreatic insult activity in db/db mouse assessed as increase in lipase level in serum at 25 nmol/kg, sc administered every 2 days for 12 weeks", "assay_type": "toxicity, organism-based", "settings": "in vivo, 2016 h"}, "[17]": {"test": "Renal toxicity in DIO C57BL/6 mouse assessed as creatinine level in serum at 100 nmol/kg, sc administered once daily for 7 days", "assay_type": "organism-based", "settings": "in vivo, 168 h, time 7 day"}, "Mus musculus [18]": {"tested_on": "Mus musculus", "test": "Hypoglycemic activity in ICR mouse assessed as improvement in glucose tolerance at 25 nmol/kg, ip administered 30 min before oral glucose administration and measured upto 120 mins by OGTT", "assay_type": "functional, organism-based"}, "[19]": {"biological_target": "T1, Glucagon-like peptide 1 receptor (Homo sapiens, UniProt P43220)", "T1 sequence (P43220 whole entry)": "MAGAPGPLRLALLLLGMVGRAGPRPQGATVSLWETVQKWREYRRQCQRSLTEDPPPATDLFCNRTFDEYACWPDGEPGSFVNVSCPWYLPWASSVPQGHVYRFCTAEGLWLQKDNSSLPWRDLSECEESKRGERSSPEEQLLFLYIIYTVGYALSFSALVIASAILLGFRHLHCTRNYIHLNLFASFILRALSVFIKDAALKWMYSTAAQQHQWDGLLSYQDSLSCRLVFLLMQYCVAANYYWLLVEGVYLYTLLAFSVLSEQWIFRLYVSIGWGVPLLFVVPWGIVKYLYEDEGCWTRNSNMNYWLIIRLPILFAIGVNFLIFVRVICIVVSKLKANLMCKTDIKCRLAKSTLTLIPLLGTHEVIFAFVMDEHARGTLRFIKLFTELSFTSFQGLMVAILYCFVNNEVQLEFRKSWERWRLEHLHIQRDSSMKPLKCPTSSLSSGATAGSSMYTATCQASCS", "test": "Agonist activity at human GLP-1R expressed in HEK293 cells assessed as cAMP release incubated for 20 min by HTRF analysis", "assay_type": "functional, cell-based", "settings": "hek293"}, "[20]": {"biological_target": "T1, Glucagon-like peptide 1 receptor", "test": "Agonist activity at human GLP-1R expressed in CHO cells assessed as cAMP release incubated for 20 min by HTRF analysis", "assay_type": "functional, cell-based"}},
  "note": "Calls of active or inactive are those of the source. No cut-off for these calls is given here.",
  "data": [
    {"smiles": "CCCC[C@H](NC(=O)[C@H](Cc1ccc(CS(=O)(=O)O)cc1)NC(=O)[C@H](CC(=O)O)NC(=O)COCCOCCNC(=O)COCCOCCNC(=O)[C@H](CCCNC(=N)N)NC(=O)CNC(=O)[C@H](CCCCN)NC(=O)[C@@H](NC(=O)[C@H](CC(C)C)NC(=O)[C@H](Cc1c[nH]c2ccccc12)NC(=O)[C@H](C)NC(=O)[C@@H](NC(=O)[C@H](Cc1ccccc1)NC(=O)[C@H](CCC(=O)O)NC(=O)[C@H](CCCCNC(=O)COCCOCCNC(=O)COCCOCCNC(=O)CC[C@H](NC(=O)CCCCCCCCCCCCCCCCC(=O)O)C(=O)O)NC(=O)[C@H](C)NC(=O)[C@H](C)NC(=O)[C@H](CCC(N)=O)NC(=O)CNC(=O)[C@H](CCC(=O)O)NC(=O)[C@H](CC(C)C)NC(=O)[C@H](Cc1ccc(O)cc1)NC(=O)[C@H](CO)NC(=O)[C@H](CO)NC(=O)[C@@H](NC(=O)[C@H](CC(=O)O)NC(=O)[C@H](CO)NC(=O)[C@@H](NC(=O)[C@H](Cc1ccccc1)NC(=O)[C@@H](NC(=O)CNC(=O)[C@H](CCC(=O)O)NC(=O)[C@H](C)NC(=O)[C@@H](N)Cc1cnc[nH]1)[C@@H](C)O)[C@@H](C)O)C(C)C)[C@@H](C)CC)C(C)C)C(=O)NCC(=O)N[C@@H](Cc1c[nH]c2ccccc12)C(=O)N[C@@H](CCCC)C(=O)N(C)[C@H](CC(=O)O)C(=O)N(C)[C@@H](Cc1ccccc1)C(N)=O", "values": [
      {"measurement": "Activity", "setting": "[1]", "result": "Non-Toxic"},
      {"measurement": "Activity", "setting": "[2]", "result": "Non-Toxic"},
      {"measurement": "Activity", "setting": "Mus musculus [3]", "result": "Active"},
      {"measurement": "Activity", "setting": "[4]", "result": "Non-Toxic"},
      {"measurement": "Activity", "setting": "Mus musculus [5]", "result": "Active"},
      {"measurement": "Activity", "setting": "[6]", "result": "Non-Toxic"},
      {"measurement": "Activity", "setting": "Mus musculus [7]", "result": "Active"},
      {"measurement": "Activity", "setting": "Mus musculus [8]", "result": "Active"},
      {"measurement": "Activity", "setting": "[9]", "result": "Non-Toxic"},
      {"measurement": "Cmax", "setting": "[10]", "result": 341, "unit": "ng/mL"},
      {"measurement": "Activity", "setting": "Mus musculus [11]", "result": "Active"},
      {"measurement": "Activity", "setting": "Mus musculus [12]", "result": "Active"},
      {"measurement": "Activity", "setting": "Mus musculus [13]", "result": "Dde"},
      {"measurement": "Activity", "setting": "Mus musculus [14]", "result": "Active"},
      {"measurement": "Activity", "setting": "Mus musculus [15]", "result": "Active"},
      {"measurement": "Activity", "setting": "[16]", "result": "Toxic"},
      {"measurement": "Activity", "setting": "[17]", "result": "Non-Toxic"},
      {"measurement": "Activity", "setting": "Mus musculus [18]", "result": "Active"}
    ]},
    {"smiles": "CCCC[C@H](NC(=O)[C@H](Cc1ccc(CS(=O)(=O)O)cc1)NC(=O)[C@H](CC(=O)O)NC(=O)COCCOCCNC(=O)COCCOCCNC(=O)[C@H](CCCCN)NC(=O)CNC(=O)[C@H](CCCCN)NC(=O)[C@@H](NC(=O)[C@H](CC(C)C)NC(=O)[C@H](Cc1c[nH]c2ccccc12)NC(=O)[C@H](CCC(=O)O)NC(=O)[C@@H](NC(=O)[C@H](Cc1ccccc1)NC(=O)[C@H](CCC(=O)O)NC(=O)[C@H](CCCCNC(=O)COCCOCCNC(=O)COCCOCCNC(=O)CC[C@H](NC(=O)CCCCCCCCCCCCCCCCC(=O)O)C(=O)O)NC(=O)[C@H](C)NC(=O)[C@H](C)NC(=O)[C@H](CCC(=O)O)NC(=O)[C@H](CCC(=O)O)NC(=O)[C@H](CCC(=O)O)NC(=O)[C@H](CC(C)C)NC(=O)[C@@H](NC(=O)[C@H](CCC(=O)O)NC(=O)[C@@H](NC(=O)[C@@H](NC(=O)[C@H](CC(=O)O)NC(=O)[C@H](CC(N)=O)NC(=O)[C@@H](NC(=O)[C@H](Cc1ccc(O)cc1)NC(=O)[C@@H](NC(=O)CNC(=O)[C@H](CCC(=O)O)NC(=O)C(C)(C)NC(=O)[C@@H](N)Cc1cnc[nH]1)[C@@H](C)O)[C@@H](C)O)C(C)C)[C@@H](C)O)[C@@H](C)O)[C@@H](C)CC)[C@@H](C)CC)C(=O)NCC(=O)N[C@@H](Cc1c[nH]c2ccccc12)C(=O)N[C@@H](CCCC)C(=O)N(C)[C@H](CC(=O)O)C(=O)N(C)[C@@H](Cc1ccccc1)C(N)=O", "values": [
      {"measurement": "Activity", "setting": "[1]", "result": "Non-Toxic"},
      {"measurement": "Activity", "setting": "[2]", "result": "Non-Toxic"},
      {"measurement": "Activity", "setting": "Mus musculus [3]", "result": "Active"},
      {"measurement": "Activity", "setting": "[4]", "result": "Non-Toxic"},
      {"measurement": "Activity", "setting": "Mus musculus [5]", "result": "Active"},
      {"measurement": "Activity", "setting": "[6]", "result": "Non-Toxic"},
      {"measurement": "Activity", "setting": "Mus musculus [7]", "result": "Active"},
      {"measurement": "Activity", "setting": "Mus musculus [8]", "result": "Active"},
      {"measurement": "Activity", "setting": "[9]", "result": "Non-Toxic"},
      {"measurement": "Cmax", "setting": "[10]", "result": 461, "unit": "ng/mL"},
      {"measurement": "Activity", "setting": "Mus musculus [11]", "result": "Active"},
      {"measurement": "Activity", "setting": "Mus musculus [12]", "result": "Active"},
      {"measurement": "Activity", "setting": "Mus musculus [13]", "result": "Dde"},
      {"measurement": "Activity", "setting": "Mus musculus [14]", "result": "Active"},
      {"measurement": "EC50", "setting": "[19]", "result": 0.074, "unit": "nM"},
      {"measurement": "Activity", "setting": "Mus musculus [15]", "result": "Active"},
      {"measurement": "Activity", "setting": "[16]", "result": "Toxic"},
      {"measurement": "EC50", "setting": "[20]", "result": 0.057, "unit": "nM"},
      {"measurement": "Activity", "setting": "[17]", "result": "Non-Toxic"}
    ]}
  ]
}
